According to patent US20250230193A1, “CYCLIC COMPOUND HAVING SELECTIVE KRAS INHIBITORY EFFECT ON HRAS AND NRAS” (CHUGAI SEIYAKU KABUSHIKI KAISHA, priority 2022, published 2025):
Where a SMILES comes first, the peptide text is derived from it. Bridges are numbered along the chain shown (N, C = ends). [ ]: non-standard residue; d: D form. The star is where a group is joined. hPhe(3-Cl-4-CF3) = N[C@@H](CCc1ccc(C(F)(F)F)c(Cl)c1)C(=O)O; NPrPhe(4-CF3) = CCCN[C@@H](Cc1ccc(C(F)(F)F)cc1)C(=O)O; NMePhe(4-Me) = CN[C@@H](Cc1ccc(C)cc1)C(=O)O; Pro(4-spirocPr) = O=C(O)[C@@H]1CC2(CC2)CN1; NMeGly(cPent) = CN[C@H](C(=O)O)C1CCCC1; NMeD = CN[C@@H](CC(=O)O)C(=O)O; NMeL = CN[C@@H](CC(C)C)C(=O)O; Morpholide = C1CN(*)CCO1; NMeA = CN[C@@H](C)C(=O)O; NMeAib = CNC(C)(C)C(=O)O; Nle = CCCC[C@H](N)C(=O)O; Piperidide = C1CCN(*)CC1; Ac5c = NC1(C(=O)O)CCCC1; Aze = O=C(O)[C@@H]1CCN1; Sar = CNCC(=O)O

How the values were obtained:
[1] = biological target: GDP-bound NRAS wild-type protein (Homo sapiens, UniProt P01111); assay: Binding to NRAS by surface plasmon resonance (SPR), Single Cycle Kinetics; conditions: SPR
[2] = biological target: GDP-bound HRAS wild-type protein (Homo sapiens, UniProt P01112); assay: Binding to HRAS by surface plasmon resonance (SPR), Single Cycle Kinetics; conditions: SPR
[3] = KD ratio, GDP-bound NRAS wild-type vs GDP-bound KRAS wild-type
[4] = KD ratio, GDP-bound HRAS wild-type vs GDP-bound KRAS wild-type

Sequence of GDP-bound HRAS wild-type protein (P01112 whole entry): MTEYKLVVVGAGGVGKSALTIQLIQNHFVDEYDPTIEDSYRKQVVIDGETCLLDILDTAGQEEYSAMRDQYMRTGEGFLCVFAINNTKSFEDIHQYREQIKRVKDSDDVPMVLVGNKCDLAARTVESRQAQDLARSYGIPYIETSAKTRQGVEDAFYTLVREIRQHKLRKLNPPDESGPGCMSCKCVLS
Sequence of GDP-bound NRAS wild-type protein (P01111 whole entry): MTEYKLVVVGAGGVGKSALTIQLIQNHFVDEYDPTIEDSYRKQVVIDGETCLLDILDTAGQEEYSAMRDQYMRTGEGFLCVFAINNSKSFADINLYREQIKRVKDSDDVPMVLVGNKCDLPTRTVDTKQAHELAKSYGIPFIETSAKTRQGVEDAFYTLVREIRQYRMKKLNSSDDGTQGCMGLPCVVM

Row | SMILES | NRAS/KRAS (ratio of KD value with respect to NRAS to KD value with respect to KRAS) [1, 3] | HRAS/KRAS (ratio of KD value with respect to HRAS to KD value with respect to KRAS) [2, 4] | other results
1 | CCCN1C(=O)CN(C)C(=O)[C@@H]2CCN2C(=O)[C@H]([C@@H](C)CC)NC(=O)[C@H](CC(C)C)N(C)C(=O)C[C@@H](C(=O)N2CCOCC2)N(C)C(=O)[C@H](C2CCCC2)N(C)C(=O)C2(CCCC2)NC(=O)[C@@H]2CC3(CC3)CN2C(=O)[C@H](CCc2ccc(C(F)(F)F)c(Cl)c2)NC(=O)CN(C)C(=O)[C@@H]1Cc1ccc(C(F)(F)F)cc1 [PP0308] ([NMeL]I[Aze][Sar][NPrPhe(4-CF3)][Sar][hPhe(3-Cl-4-CF3)][Pro(4-spirocPr)][Ac5c][NMeGly(cPent)][NMeD]-Morpholide; lactam N-11) |  |  | NRAS/KRAS (ratio of KD for GDP-bound NRAS wild-type to KD for KRAS) [1]: B (a compound having 3 or more and less than 10 is denoted as B); HRAS/KRAS (ratio of KD for GDP-bound HRAS wild-type to KD for KRAS) [2]: B (a compound having 3 or more and less than 10 is denoted as B)
2 | CC[C@H](C)[C@@H]1NC(=O)[C@H](CC(C)C)N(C)C(=O)C[C@@H](C(=O)N2CCOCC2)N(C)C(=O)[C@H](C2CCCC2)N(C)C(=O)C2(CCC2)NC(=O)[C@@H]2[C@H](O)CCN2C(=O)[C@H](CCc2cc(F)c(C(F)(F)F)c(F)c2)NC(=O)CN(C)C(=O)[C@H](Cc2ccc(C(F)(F)F)cc2)N2CCCC[C@@H](C2=O)N(C)C(=O)CN(C)C1=O [PP0870] | B (a compound having 3 or more and less than 10 is denoted as B) | B (a compound having 3 or more and less than 10 is denoted as B) | 
3 | CCCC[C@@H]1NC(=O)[C@H](CCc2ccc(C(F)(F)F)c(Cl)c2)NC(=O)CN(C)C(=O)[C@H](Cc2ccc(C)cc2)N(C)C(=O)[C@@H]2CCN2C(=O)[C@H](C)N(C)C(=O)[C@H]([C@@H](C)CC)NC(=O)[C@H](CC(C)C)N(C)C(=O)C[C@@H](C(=O)N2CCCCC2)N(C)C(=O)[C@H](CC(C)C)NC(=O)C(C)(C)N(C)C1=O [PP0047] ([NMeL]I[NMeA][Aze][NMePhe(4-Me)][Sar][hPhe(3-Cl-4-CF3)][Nle][NMeAib]L[NMeD]-Piperidide; lactam N-11) |  |  | NRAS/KRAS (ratio of KD for GDP-bound NRAS wild-type to KD for KRAS) [1]: C (A compound having a KD ratio of 0.1 or more and less than 3 is denoted as C); HRAS/KRAS (ratio of KD for GDP-bound HRAS wild-type to KD for KRAS) [2]: C (A compound having a KD ratio of 0.1 or more and less than 3 is denoted as C)
4 | CCO[C@@H]1C[C@H]2C(=O)NC3(CCC3)C(=O)N(C)[C@@H](C3CCCC3)C(=O)N(CC)[C@H](C(=O)N3CCOCC3)CC(=O)N(C)[C@@H](CCc3ccccc3)C(=O)N[C@@H]([C@@H](C)CC)C(=O)N(C)CC(=O)N(C)[C@H]3CCCCCN(C3=O)[C@@H](Cc3ccc(C(F)(F)F)cc3)C(=O)N(C)CC(=O)N[C@@H](CCc3cc(F)c(C(F)(F)F)c(F)c3)C(=O)N2C1 [PP0953] | A (a compound having 10 or more and less than 20 is denoted as A) | A (a compound having 10 or more and less than 20 is denoted as A) | 
5 | CCO[C@@H]1C[C@H]2C(=O)NC3(CCC3)C(=O)N(C)[C@@H](C3CCCC3)C(=O)N(C)[C@H](C(=O)N(C)C)CC(=O)N(C)[C@@H](CC)C(=O)N[C@@H]([C@@H](C)CC)C(=O)N(C)CC(=O)N(C)[C@H]3CCCCN(C3=O)[C@@H](Cc3ccc(C(F)(F)F)cc3)C(=O)N(C)CC(=O)N[C@@H](CCc3ccc(C(F)(F)F)c(C)c3)C(=O)N2C1 [PP0882] | C (A compound having a KD ratio of 0.1 or more and less than 3 is denoted as C) | B (a compound having 3 or more and less than 10 is denoted as B) | 
6 | CCCN(C)C(=O)[C@@H]1CC(=O)N(C)[C@@H](CCOC)C(=O)N[C@@H]([C@@H](C)CC)C(=O)N(C)CC(=O)N(C)[C@H]2C/C=C\CCN(C2=O)[C@@H](Cc2ccc(C(F)(F)F)cc2)C(=O)N(C)CC(=O)N[C@@H](CCc2ccc(C(F)(F)F)c(OC)c2)C(=O)N2C[C@@H](C)C[C@H]2C(=O)NC2(CCC2)C(=O)N(C)[C@@H](C2CCCC2)C(=O)N1C [PP2029] |  |  | NRAS/KRAS (ratio of KD value for NRAS to KD value for KRAS) [1, 3]: A (a compound having 10 or more and less than 20 is denoted as A); HRAS/KRAS (ratio of KD value for HRAS to KD value for KRAS) [2, 4]: B (a compound having 3 or more and less than 10 is denoted as B)
7 | CCO[C@@H]1C[C@H]2C(=O)NC3(CCC3)C(=O)N(C)[C@@H](C3CCCC3)C(=O)N(C)[C@H](C(=O)N3CCOCC3)CC(=O)N(C)[C@@H](CC)C(=O)N[C@@H]([C@@H](C)CC)C(=O)N3CC[C@H]3C(=O)N(C)[C@H]3CC(C)=CCN(C3=O)[C@@H](Cc3ccc(C(F)(F)F)cc3)C(=O)N(C)CC(=O)N[C@@H](CCc3cc(F)c(C(F)(F)F)c(F)c3)C(=O)N2C1 [PP1042] | C (A compound having a KD ratio of 0.1 or more and less than 3 is denoted as C) | C (A compound having a KD ratio of 0.1 or more and less than 3 is denoted as C) | 
